According to PubChem BioAssay AID743319 (Broad Institute, 2014):
Active and inactive are the calls of the source.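 How the source made its calls: active means fitted curve reaches 200% activation at or below the highest valid dose tested for that compound; inconclusive means flat fit between 30 and 70% activation, or unreliable fit; inactive means the rest.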

Target: Endoplasmic reticulum aminopeptidase 2 (Homo sapiens) (UniProt Q6P179)
Assay: ERAP2 activation by compounds, dose response, selectivity assay for selective ERAP1 modulator project, biochemical, fluorescence plate reader, cherry-picked samples (AID 743319)
Details: recombinant ERAP2, Arg-AMC cleavage fluorescence, 1 h

Endoplasmic reticulum aminopeptidase 2 (Homo sapiens), sequence (Q6P179 whole entry, looked up): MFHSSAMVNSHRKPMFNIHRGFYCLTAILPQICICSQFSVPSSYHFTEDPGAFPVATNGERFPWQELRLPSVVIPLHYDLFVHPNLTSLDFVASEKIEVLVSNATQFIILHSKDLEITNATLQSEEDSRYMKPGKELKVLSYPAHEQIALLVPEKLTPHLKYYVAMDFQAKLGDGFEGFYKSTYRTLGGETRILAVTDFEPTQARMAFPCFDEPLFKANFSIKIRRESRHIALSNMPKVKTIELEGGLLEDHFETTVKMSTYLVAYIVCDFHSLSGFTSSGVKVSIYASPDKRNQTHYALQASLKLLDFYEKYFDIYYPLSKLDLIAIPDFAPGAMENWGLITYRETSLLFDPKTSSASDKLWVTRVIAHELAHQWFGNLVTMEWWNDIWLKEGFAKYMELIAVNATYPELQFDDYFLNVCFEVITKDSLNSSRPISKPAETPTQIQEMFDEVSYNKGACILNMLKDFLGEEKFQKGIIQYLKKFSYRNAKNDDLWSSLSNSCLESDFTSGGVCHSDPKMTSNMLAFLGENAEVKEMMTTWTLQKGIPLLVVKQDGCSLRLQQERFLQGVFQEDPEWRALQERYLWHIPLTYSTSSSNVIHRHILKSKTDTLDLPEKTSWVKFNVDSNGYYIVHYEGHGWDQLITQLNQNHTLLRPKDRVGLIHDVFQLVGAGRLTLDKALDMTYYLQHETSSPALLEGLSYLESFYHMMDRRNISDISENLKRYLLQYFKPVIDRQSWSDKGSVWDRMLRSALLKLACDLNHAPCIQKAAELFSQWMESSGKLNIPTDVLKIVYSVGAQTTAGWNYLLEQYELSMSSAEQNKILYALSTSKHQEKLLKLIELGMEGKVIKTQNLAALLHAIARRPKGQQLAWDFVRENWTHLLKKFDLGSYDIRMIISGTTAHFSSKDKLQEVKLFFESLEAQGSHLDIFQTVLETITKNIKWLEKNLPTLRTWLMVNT

COc1ccc(C(=O)O)cc1S(=O)(=O)Nc1cc(C(F)(F)F)ccc1N1CCCCC1
activation (at 11 µM (top of the series)): 8.35% (inactive)

O=c1ccc2cc(O[C@@H]3O[C@H](CO)[C@@H](O)[C@H](O)[C@H]3O)c(O)cc2o1
AC200: 687 nM

COc1ccc(CN(C)C[C@@H]2OCCCC[C@@H](C)Oc3ccc(NS(=O)(=O)c4cccs4)cc3C(=O)N([C@@H](C)CO)C[C@H]2C)cc1
activation (at 11 µM (top of the series)): -1.25% (inactive)

CCN(CC)c1ccc2c(C)c(Cl)c(=O)oc2c1
AC200: 1420 nM

Cc1cc(=O)oc2cc(OCC(=O)N3CCN(C(C)c4ccccc4)CC3)c(Cl)cc12 (centres undefined)
AC200: 3960 nM

CCCN(C)C[C@@H]1OCCCC[C@@H](C)Oc2ccc(NS(=O)(=O)c3ccccc3)cc2C(=O)N([C@H](C)CO)C[C@@H]1C
activation (at 11 µM (top of the series)): 16% (inactive)

COc1ccc(CN(C)C[C@@H]2OCCCC[C@H](C)Oc3ccc(NS(=O)(=O)c4cccs4)cc3C(=O)N([C@@H](C)CO)C[C@@H]2C)cc1
activation (at 11 µM (top of the series)): 20.4% (inactive)

Cc1ccccc1-c1ccc2c(c1)O[C@@H](CN(C)Cc1ccc(C(=O)O)cc1)[C@@H](C)CN([C@H](C)CO)S2(=O)=O
activation (at 11 µM (top of the series)): 8.67% (inactive)

O=C(CSc1cn[nH]n1)Nc1cccc(C(=O)O)c1
activation (at 11 µM (top of the series)): 13.8% (inactive)

CCCN(C)C[C@@H]1OCCCC[C@H](C)Oc2ccc(NC(=O)Nc3ccc(F)cc3)cc2C(=O)N([C@H](C)CO)C[C@@H]1C
activation (at 11 µM (top of the series)): 10.8% (inactive)

COc1ccc(-c2cc3ccc(O)cc3oc2=O)cc1OC
AC200: 1880 nM

CCCN(C)C[C@@H]1OCCCC[C@@H](C)Oc2ccc(NS(=O)(=O)c3ccc(OC)cc3)cc2C(=O)N([C@H](C)CO)C[C@@H]1C
activation (at 8 µM (top of the series)): 15.1% (inactive)

Cc1noc(C)c1NC(=O)N(C)C[C@@H]1Oc2c(NC(=O)Nc3ccc(F)cc3)cccc2C(=O)N([C@H](C)CO)C[C@@H]1C
activation (at 11 µM (top of the series)): 18.4% (inactive)

C[C@@H]1CCCCO[C@@H](CN(C)C(=O)CCC(F)(F)F)[C@@H](C)CN([C@@H](C)CO)C(=O)c2cc(NS(=O)(=O)c3ccc(Cl)cc3)ccc2O1
AC200: > 10000 nM (inactive)

Cc1ccc(S(=O)(=O)Nc2ccc3c(c2)C(=O)N([C@@H](C)CO)C[C@H](C)[C@H](CN(C)C)OCCCC[C@@H](C)O3)cc1
activation (at 11 µM (top of the series)): 14.1% (inactive)

CN1[C@@H]2Cn3c(ccc(/C=C/c4ccccc4)c3=O)[C@H]1[C@@H](C(=O)NC1CCCC1)[C@@H]2CO
AC200: 1900 nM

O=C(C[C@H]1CC[C@@H]2[C@H](COC[C@@H](O)CN2C(=O)Nc2cccc(Cl)c2)O1)N1CCCCC1
activation (at 11 µM (top of the series)): 32.4% (inactive)

Cc1c(C)c2ccc(O)c(CN3CCCC3)c2oc1=O
AC200: 2100 nM

COc1ccc(NC(=O)Nc2ccc3c(c2)C(=O)N([C@@H](C)CO)C[C@@H](C)[C@H](CN(C)Cc2ccc(C(=O)O)cc2)OCCCC[C@H](C)O3)cc1
activation (at 11 µM (top of the series)): 37.6% (inactive)

C[C@H]1CN([C@@H](C)CO)C(=O)c2cccc(NC(=O)Nc3ccc(C(F)(F)F)cc3)c2O[C@@H]1CN(C)CC1CC1
activation (at 11 µM (top of the series)): -16.1% (inactive)

COC(=O)[C@H]1[C@H](CO)[C@H]2Cn3c(ccc(-c4ccncc4)c3=O)[C@H]2N1Cc1ccccc1F
activation (at 11 µM (top of the series)): 15.2% (inactive)

COc1ccc(CN(C)C[C@@H]2OCCCC[C@@H](C)Oc3ccc(NS(=O)(=O)c4cccs4)cc3C(=O)N([C@H](C)CO)C[C@H]2C)cc1
activation (at 11 µM (top of the series)): 1.04% (inactive)

C[C@H]1CN([C@@H](C)CO)C(=O)c2cccc(NC(=O)Nc3ccc(C(F)(F)F)cc3)c2O[C@@H]1CN(C)C
activation (at 11 µM (top of the series)): 2.76% (inactive)

CCCN(C)C[C@@H]1OCCCC[C@@H](C)Oc2ccc(NS(=O)(=O)c3c(C)noc3C)cc2C(=O)N([C@H](C)CO)C[C@@H]1C
activation (at 10 µM (top of the series)): -3.16% (inactive)

C[C@@H]1CCCCO[C@@H](CN(C)S(C)(=O)=O)[C@@H](C)CN([C@@H](C)CO)C(=O)c2cc(NS(=O)(=O)c3ccc(Cl)cc3)ccc2O1
activation (at 11 µM (top of the series)): 9.01% (inactive)

C[C@@H]1CCCCO[C@@H](CN(C)Cc2ccc3c(c2)OCO3)[C@@H](C)CN([C@@H](C)CO)C(=O)c2cc(NS(=O)(=O)c3ccccc3)ccc2O1
activation (at 5.6 µM (top of the series)): 12.7% (inactive)

O=c1ccc2cc(OC3O[C@H](CO)[C@@H](O)[C@H](O)[C@H]3O)c(O)cc2o1 (some centres undefined)
AC200: 857 nM

CCc1c(C)c2cc(Cl)c(O)c(CN(CC)CC)c2oc1=O
AC200: 1170 nM

CCCN(C)C[C@@H]1OCCCC[C@@H](C)Oc2ccc(NS(=O)(=O)c3ccc(C)cc3)cc2C(=O)N([C@H](C)CO)C[C@@H]1C
activation (at 10 µM (top of the series)): 6.04% (inactive)

COc1ccc(NC(=O)Nc2ccc3c(c2)C(=O)N([C@H](C)CO)C[C@@H](C)[C@@H](CN(C)Cc2ccc(C(=O)O)cc2)OCCCC[C@@H](C)O3)cc1
activation (at 11 µM (top of the series)): 2.96% (inactive)

CCC(=O)N1[C@@H]2c3ccc(/C=C/c4ccccc4)c(=O)n3C[C@H]1[C@H](CO)[C@H]2C(=O)N(C)C
AC200: 1690 nM

CCN1CCN(Cc2c(O)ccc3c(C)cc(=O)oc23)CC1
AC200: 3230 nM

C[C@@H]1CCCCO[C@H](CN(C)C)[C@H](C)CN([C@H](C)CO)C(=O)c2cc(NS(=O)(=O)c3ccc(Cl)cc3)ccc2O1
activation (at 11 µM (top of the series)): 16.7% (inactive)

Cc1ccccc1-c1ccc2c(c1)O[C@@H](CN(C)Cc1ccc(C(=O)O)cc1)[C@@H](C)CN([C@@H](C)CO)S2(=O)=O
activation (at 11 µM (top of the series)): 0.523% (inactive)

C[C@H](CO)N1C[C@H](C)[C@H](CN(C)CC2CCCCC2)Oc2c(NC(=O)Nc3ccc4c(c3)OCO4)cccc2C1=O
activation (at 11 µM (top of the series)): -0.254% (inactive)

CC(=O)N1[C@@H]2Cn3c(ccc(/C=C/c4ccccc4)c3=O)[C@H]1[C@@H](C(=O)NCC1CC1)[C@@H]2CO
AC200: 2500 nM

COc1ccc(CN(C)C[C@H]2OCCCC[C@@H](C)Oc3ccc(NS(=O)(=O)c4cccs4)cc3C(=O)N([C@@H](C)CO)C[C@H]2C)cc1
activation (at 11 µM (top of the series)): 2.79% (inactive)

O=C(Nc1ccc(C(F)(F)F)cc1)N1[C@@H]2CNC[C@H]1C2c1ccc(-c2ccncc2)cc1 (some centres undefined)
activation (at 11 µM (top of the series)): 1.51% (inactive)

Cc1noc(C)c1NC(=O)Nc1ccc2c(c1)C(=O)N([C@H](C)CO)C[C@@H](C)[C@@H](CN(C)Cc1ccc(C(F)(F)F)cc1)OCCCC[C@@H](C)O2
activation (at 11 µM (top of the series)): -2.75% (inactive)

C[C@@H]1CCCCO[C@H](CN(C)Cc2ccc(C(=O)O)cc2)[C@@H](C)CN([C@H](C)CO)C(=O)c2cc(NC(=O)Nc3ccc(C(F)(F)F)cc3)ccc2O1
activation (at 11 µM (top of the series)): 2.62% (inactive)

C/C(=N\NC(=O)CC#N)c1cc2ccc(O)cc2oc1=O
AC200: 2300 nM

O=C(NCC1CC1)[C@H]1[C@H](CO)[C@H]2Cn3c(ccc(/C=C/c4ccccc4)c3=O)[C@@H]1N2C(=O)C1CC1
AC200: 1770 nM

COc1ccc(CN(C)C[C@@H]2OCCCC[C@@H](C)Oc3ccc(NS(=O)(=O)c4cccs4)cc3C(=O)N([C@H](C)CO)C[C@@H]2C)cc1
activation (at 11 µM (top of the series)): 10.9% (inactive)

CC(=O)N1CCN(C(=O)C2(NC(=O)Nc3ccc(C)cc3)CCCCC2)CC1
activation (at 11 µM (top of the series)): 2.05% (inactive)
